Legend:
NAD+ = test: Intracellular NAD+ level; assay type: cell-based, mouse; details: Th1/17 differentiated with 2DG 1 mM, DON 3 μM or FK866 10 nM (FIGS. 11K, 11L)
Experimental: NAD^+, Sirt1 activity and Foxo1 activity assay: Intracellular NAD^+ level in T cells were measured spectrophotometrically following the manufacturer's protocol (Cayman chemical, Ann Arbor, MI). Using equal amounts of nuclear protein extracted by NE-PER Nuclear and Cytoplasmic Extraction Reagents (Thermo Fisher Scientific, Waltham, MA), Sirt1 activity (Universal Sirt1 Activity Assay Kit, Abcam, Cambridge, MA) and Foxo1 activity (FKHR transcription Factor Assay Kit, Active Motif, Carlsbad, CA) were determined as per manufacturer's protocol.

[1] = tested on: B16-F10-HLA-A2+ murine melanoma; test: Adoptive T cell transfer, s.c. B16-F10-HLA-A2+ melanoma, tumor growth; assay type: in vivo, mouse; details: Th1/17 differentiated ex vivo with FK866 or Ex527 vs untreated/vehicle (FIGS. 4E, 5F)
Th1/17 cells [2] = test: Intracellular cytokine (IFNγ, IL17) flow cytometry after PMA and ionomycin; assay type: cell-based, mouse; details: WT T cells programmed in presence of Ex527; sentence says both Th17 and Th1/17 cells (FIG. 12A)
Text: T cell differentiation: Naïve CD4^+ T cells were purified from the total splenocytes of 6-9 weeks old WT (C57BL/6) and KO (Foxo1^fl/flLck^cre, Sirt1^fl/flCD4^cre, CD38KO) mice using CD4^+ T cell isolation kit (Miltenyi Biotec) according to manufacturer's protocol. Total splenocytes from 6-9 weeks old TCR transgenic mouse TRP-1 (bears class-II restricted CD4^+ T cells) or Pmel (bears class-I restricted CD8^+ T cells) or TCR-I (bears class-I restricted CD8^+ T cells) were also used. Within experiments mice were age and sex matched. Purified naïve CD4^+ T cells or total splenocytes were differentiated to Th1 or Tc1 (10 ng/ml IL12, 50 U/ml IL2 and 10 μg/ml anti-IL4), Th17 or Tc17 (3 ng/ml TGFβ, 25 ng/ml IL6, 10 μg/ml anti-IL4 and 10 μg/ml anti-IFNγ), Th1/17 or Tc1/17 (20 ng/ml IL1β, 25 ng/ml IL6, 10 ng/ml IL12, 20 ng/ml IL23, 400 pg/ml TGFβ, 10 μg/ml anti-IL4, 5 μg/ml anti-IFNγ), iTreg (5 ng/ml TGFβ, 100 IU/ml IL2, 10 μg/ml anti-IL4 and 10 μg/ml anti-IFNγ or Th0 (50 IU/ml IL2) in presence of plate bound anti-CD3 (5 μg/ml) and anti-CD28 (5 μg/ml). For TRP-1, gp100 or Sv40 specific generation of different Th or Tc subsets, total splenocytes from either TRP-1, Pmel or TCR-I TCR transgenic mice were stimulated with 1 μg/ml respective peptides in presence of above-mentioned polarizing conditions. T cells were differentiated for three days in IMDM media supplemented with 10% FCS, 4 mM L-glutamine, 100 U/ml penicillin, 100 μg/ml streptomycin, 55 μM beta-mercaptoethanol under 7% CO2, atmospheric oxygen at 37° C. in a humidified incubator. For evaluation of intracellular cytokines by flow cytometry, T cells were re-stimulated with PMA (500 ng/ml) and Ionomycin (500 ng/ml) for 4 hr in presence of Glogi inhibitors. […]
Flow cytometry: Staining for cell surface markers was performed by incubating cells with antibody at 1:200 dilutions in FACS buffer (0.1% BSA in PBS) for 30 min at 4° C. […] Samples were acquired on LSRFortessa and analysed with FlowJo software (Tree Star, OR).

Th1 cells [3] = test: as above; assay type: cell-based, mouse; details: Th1 subsets (FIGS. 12A and 12B)
Experimental: FIGS. 12A-12D: Loss of Sirt1 expression and NAD+ levels on Th1/17 cell phenotype and function (see FIG. 5). (A) Purified CD4^+ T cells from C57BL/6 were used to differentiate to Th1/17 cells either alone or in the presence of Ex527, a pharmacological inhibitor of Sirt1. Cells were then restimulated with PMA and ionomycin for 4 hr in presence of golgi block to stain for intracellular accumulation of cytokines IFNγ and IL17. (B) Th1 cells were cultured either in presence or absence of NAD+ inhibitor FK866 (10 nM) and intracellular staining was performed for IFNγ and IL17. Data was acquired using FACS and analysis was carried out using FlowJo software. (C-D) Purified splenic CD4^+ T cells from either C57BL/6 WT or Sirt1fl/flCD4Cre (Sirt1KO) mouse were used to ex vivo program for Th1/17 cells. RNA was prepared and quantitative PCR analysis was performed for the expression of various glycolysis (C) and glutaminolysis (D) associated genes in either WT or Sirt1KO Th1/17 cells. Data in section A-D are representative of three independent experiments.
T cell differentiation: Naïve CD4^+ T cells were purified from the total splenocytes of 6-9 weeks old WT (C57BL/6) and KO (Foxo1^fl/flLck^cre, Sirt1^fl/flCD4^cre, CD38KO) mice using CD4^+ T cell isolation kit (Miltenyi Biotec) according to manufacturer's protocol. […]

Th1/17 cells [4] = test: qPCR gene expression in Th1/17 cells; assay type: cell-based, mouse; details: Th1/17 differentiated with FK866 10 nM or Ex527 (FIGS. 4D, 5D)
Experimental: Real-time quantitative-PCR: Total RNA was extracted from pellets of the indicated T cell subsets (2×10^6 cells) using Trizol reagent (Life technologies, Grand Island, NY). cDNA was generated from 1 μg total RNA using iScript cDNA Synthesis Kit (BioRad, Hercules, CA). SYBR Green incorporation quantitative real-time PCR was performed using a SYBR Green mix (Biorad, Hercules, CA) in the CFX96 Detection System (BioRad, Hercules, CA). Expression of different genes was quantified relative to Actb.

Th1 cells [5] = test: Seahorse oxygen consumption rate with etomoxir; assay type: cell-based, mouse; details: etomoxir 200 μM (FIG. 3J)
Text: (§1) FIGS. 3A-3P: Hybrid Th1/17 cells are metabolically distinct from Th1 and Th17 cells and depend upon glutaminolysis. The ex vivo programmed Th1, Th17 and Th1/17 cells were used to determine: (A) Glucose uptake using 2NBDG. Adjacent bar diagram represents the cumulative data of mean fluorescence intensity (MFI) from three independent experiments. (B) ECAR time course in response to glucose, oligomycin and 2DG (left panel). […] (C) Intracellular expression of GAPDH by FACS. Adjacent bar represents cumulative data from 3 experiments. (D) Glycolysis associated genes using qPCR. Genes including Glut1, HKI, HKII, Pfkb1, Pkm2, and LdhA are lower in Th1/Th17 while Pfkb3 and Pgam 1 are higher. (E-G) Oxygen consumption rate (OCR) under basal condition and in response to indicated mitochondrial inhibitors. Graphs representing time course (E), basal OCR (F), and OCR/ECAR ratio (G). (H) Expression of CTP1a using qPCR. […] (M) Uptake of radiolabelled glutamine that was measured in count per minute (CPM). […] (P) TRP-1 Th1/17 cells differentiated either in presence of vehicle control (DMSO) or DON (3 μM) were adoptively transferred (0.5×10^6) in 9 days s.c. established B16-F10 melanoma tumor bearing mice and tumor growth was measured. […]
(§2) Oxygen consumption rate (OCR) and Extracellular acidification rate (ECAR) was determined using Seahorse Xfe96 analyser (Agilent Technologies, Santa Clara, CA). […] OCR, a measure of OXPHOS, was analysed under basal condition or in response to 200 μM Etomoxir (Sigma-Aldrich, St. Louis, MO) followed by 1.0 μM oligomycin (Sigma-Aldrich, St. Louis, MO), 1.0 μM fluoro-carbonyl cyanide phenylhydrazone (FCCP) (Sigma-Aldrich, St. Louis, MO) and 2 μM rotenone (Sigma-Aldrich, St. Louis, MO) plus 100 nM antimycin A (Sigma-Aldrich, St. Louis, MO). ECAR, a measure of glycolysis was measured under basal conditions and in response to glucose (5.5 mM), Oligomycin (1.0 μM), 2-deoxyglucose (2-DG) (100 mM) (Sigma-Aldrich, St. Louis, MO).

Th1/17 cells [6] = test: Seahorse oxygen consumption rate with etomoxir; assay type: cell-based, mouse; details: etomoxir 200 μM (FIG. 3K)
Text: as §1, §2

Th17 cells = test: Seahorse oxygen consumption rate with etomoxir; assay type: cell-based, mouse; details: etomoxir 200 μM (FIG. 3I)
Text: as §1, §2

For `O=CC[C@@H](O)[C@H](O)[C@H](O)CO` [2DG, 2-Deoxy-D-glucose], the “NAD+ levels in Th1/17 cells” value (NAD+) was “increased the NAD^+ level in Th1/17 cells”.

`NC(=O)C1CCCc2c1[nH]c1ccc(Cl)cc21` (centres unmarked) [Ex527] was tested, and the “tumor control by inhibitor-treated Th1/17 cells upon adoptive transfer” value [1] was “reduced ability to control tumor growth as compared to the vehicle treated cells”, the “frequency of IL17+ population” value (Th1/17 cells [2]) was “decreased frequency of IL17^+ population” and the IFNγ secreting fraction (Th1 cells [3]) was “No significant difference”. The “expression of stemness-associated genes” value (Th1/17 cells [4]) was “markedly reduced”.

In the case of `CCOC(=O)[C@@]1(CCCCCCOc2ccc(Cl)cc2)CO1` [etomoxir], the OXPHOS (Th1 cells [5]) is reported as “mostly unaffected”, the OXPHOS (Th1/17 cells [6]) is reported as “mostly unaffected” and the “OCR and SRC values” (Th17 cells) is reported as “significantly depleted OCR and SRC values”.
